The text below walks through data of patent US20240150340A1, “CDK Inhibitors And Their Use As Pharmaceuticals” (Prelude Therapeutics Incorporated, priority 2022, published 2024).

A value given as a limit tells only on which side of the number the result lay.

One may read the IC50 as the concentration that gives 50% inhibition.

Assay [1] has as its system OVCAR3 p-RB. The experiment in a line: pRB ICW Assay in OVCAR3 Cells. The assay is classed as cell-based. Conditions: Homo sapiens, OVCAR-3, incubated with compound for 2 hours. The method, then:
pRB ICW Assay in OVCAR3 Cells
OVCAR3 cells were maintained in RPMI (Corning, Catalog #: 10-040-CV) supplemented with 10% v/v FBS (Gibco, Catalog #: 26140-079), 1% v/v Penicillin Streptomycin (Gibco, Catalog #15140-122.) OVCAR3 cells grown at log phase were trypsinized, counted, and resuspended in fresh medium to reach a final density of 6.7e4 cells/mL and 75 μL of culture were dispensed into a 384-well plate (Falcon, cat #353962) using a Multidrop Combi dispenser (Thermo Scientific). The next day, compounds were dispensed as a 9-point, ½ log serial dilution using a Tecan digital dispenser (D300e), and cells were incubated with compound for 2 hours in a humidified incubator at 37° C. A reference compound at a final concentration of 10 μM was used as a control for maximum inhibition. Each compound was tested in duplicate for each experiment. At the end of the incubation, […] (Electron Microscopy, cat #15710) was slowly added to each well and the plate was incubated at room temperature (RT) for 30 minutes to fix cells. Cells were then permeabilized by incubating with 50 μL/well of wash buffer (1×PBS with 0.1% Triton X-100) 5×5 minutes, followed by 1 hour blocking with 30 μL/well of Odyssey blocking buffer (Li-COR, cat #927-40000), at RT. Anti-phosphor RB antibody (Cell signaling 8516S) was diluted 1:1000 in Odyssey blocking buffer and 20 μL was added to all wells and incubated overnight in 4° C. with gently rocking. The next day, cells were washed 5×5 min with 50 μL/well of wash buffer, followed with 1 hour incubation with secondary antibody and DRAQ5 diluted in Odyssey blocking buffer (1:500 dilution for secondary antibody and 1:2000 dilution for DRAQ5), 5×5 min washes, and one last wash with water. Plates were dried in 37° C. oven for 5 minutes and scanned using Li-COR Odyssey CLx imaging system to acquire intensities at 700 and 800 nm channels.

Assay [2] addresses T1, CDK2/Cyclin E2 (Homo sapiens, UniProt P24941).
T1 construct: Recombinant protein complex CDK2/Cyclin E2, expressed from insect cell, was purchased from ProQinase
The assay is described as follows: CDK2/CyclinE2 Enzymatic Activity Assay (TR-FRET). Format: biochemical. The conditions noted are these: ATP 1 mM final, read-out: CDK2_E1 IC50. The protocol: CDK2/CyclinE2 Enzymatic Activity Assay
The inhibitory activity of compounds was evaluated in vitro using TR-FRET assay with white 384-well low volume microplate (Greiner Bio-One). CDK2/Cyclin E2 catalyzed phosphorylation of peptide in the presence and absence of compounds was measured and used in IC50 determination. Recombinant protein complex CDK2/Cyclin E2, expressed from insect cell, was purchased from ProQinase. Testing compounds were dissolved in DMSO at 1 mM and tested in 9-dose IC50 mode. The reaction mixture was prepared by mixing CDK2/CyclinE2 (1 nM final), ULight-4E-BP1 (50 nM final, Perkinelmer, TRF0128-D), and ATP (1 mM final) in assay buffer (20 mM of HEPES pH 7.4, 1 mM of EGTA, 0.05% BSA, 0.005% Tween 20, and 1 mM TCEP). The compound of interest in DMSO was added to each well in 3-fold serial dilution by dispenser (TECAN D300E) to make a 9.9 μL of reaction mixture. After 20 minutes preincubation at room temperature, 0.1 μL MgCl2 (10 mM final) was added to initiate the reaction. Following a 45 minute incubation at 37° C., the reaction was stopped by addition of 2 μL of quenching buffer consisting of Lance detection buffer (Perkinelmer CR97-100C), LANCE Ultra Europium-anti-P-4E-BP1 (Perkinelmer, TRF0216-D), EDTA, and incubated at room temperature for additional 60 minutes in the dark. The reaction signal was measured by Envision multimode plate reader (PerkinElmer, 2102-0010). IC50 values were determined by fitting the data to the standard 4 parameters with Hill Slope using GraphPad Prism software.
(In general: In TR-FRET formats the signal depends on donor and acceptor labels being close together.)

With `CC(C)(O)c1cnc(-c2nc(N[C@H]3CCN(S(C)(=O)=O)C[C@H]3F)ncc2C(F)(F)F)s1` [Example 96, 2-(2-(2-(((3R,4S)-3-fluoro-1-(methylsulfonyl)piperidin-4-yl)amino)-5-(trifluoromethyl)pyrimidin-4-yl)thiazol-5-yl)propan-2-ol], the IC50 in assay [1] and in assay [2] was not above 100 nM each time.
Regarding `CC(C)(O)c1cnc(-c2nc(NC3CCN(S(C)(=O)=O)CC3)ncc2C(F)(F)F)s1` [Example 95, 2-(2-(2-((1-(methylsulfonyl)piperidin-4-yl)amino)-5-(trifluoromethyl)pyrimidin-4-yl)thiazol-5-yl)propan-2-ol], the IC50 in assay [1] is 100 to 500 nM; in assay [2] it was not above 100 nM.
For `C[C@@H]1CN(S(=O)(=O)c2cnn(C)c2)CC[C@@H]1Nc1ncc(C(F)(F)F)c(-c2ncc(C(O)C(F)F)s2)n1` (stereo partly drawn) [Example 138, 2,2-difluoro-1-(2-(2-(((3R,4S)-3-methyl-1-((1-methyl-1H-pyrazol-4-yl)sulfonyl)piperidin-4-yl)amino)-5-(trifluoromethyl)pyrimidin-4-yl)thiazol-5-yl)ethan-1-ol] the same measures were not above 100 nM and not above 100 nM.
For `C[C@@H]1CN(S(=O)(=O)c2cn(C)cn2)CC[C@@H]1Nc1ncc(C(F)(F)F)c(-c2cc(C#N)c(C(C)(C)O)s2)n1` [Example 121, 2-(2-hydroxypropan-2-yl)-5-(2-(((3R,4S)-3-methyl-1-((1-methyl-1H-imidazol-4-yl)sulfonyl)piperidin-4-yl)amino)-5-(trifluoromethyl)pyrimidin-4-yl)thiophene-3-carbonitrile] the same measures were 100 to 500 nM and not above 100 nM.
Regarding `C[C@@H]1CN(S(C)(=O)=O)CC[C@@H]1Nc1ncc(C(F)(F)F)c(-c2ncc(C3(O)CC3)s2)n1` [Example 151, 1-(2-(2-(((3R,4S)-3-methyl-1-(methylsulfonyl)piperidin-4-yl)amino)-5-(trifluoromethyl)pyrimidin-4-yl)thiazol-5-yl)cyclopropan-1-ol], the IC50 in assay [1] was more than 500 nM; in assay [2], not above 100 nM.
`C[C@@H]1CN(S(=O)(=O)c2cnn(C)c2)CC[C@@H]1Nc1ncc(C(F)(F)F)c(-c2ncc(C(O)CF)s2)n1` (stereo partly drawn) [Example 144, 2-fluoro-1-(2-(2-(((3R,4S)-3-methyl-1-((1-methyl-1H-pyrazol-4-yl)sulfonyl)piperidin-4-yl)amino)-5-(trifluoromethyl)pyrimidin-4-yl)thiazol-5-yl)ethan-1-ol]: the concentration for half-maximal inhibition (IC50) is 100 to 500 nM in assay [1] and not above 100 nM in assay [2].
For `CC(O)c1cnc(-c2nc(N[C@@H]3CCN(S(=O)(=O)c4cnn(C)c4)C[C@H]3F)ncc2C(F)(F)F)s1` (stereo partly drawn) [Example 115, 1-(2-(2-(((3R,4R)-3-fluoro-1-((1-methyl-1H-pyrazol-4-yl)sulfonyl)piperidin-4-yl)amino)-5-(trifluoromethyl)pyrimidin-4-yl)thiazol-5-yl)ethan-1-ol] the same measures were not above 100 nM and not above 100 nM.
Turning to `CC(C)(O)Cc1cnc(-c2nc(N[C@H]3CCN(S(C)(=O)=O)C[C@H]3F)ncc2Cl)s1` [Example 152, 1-(2-(5-chloro-2-(((3R,4S)-3-fluoro-1-(methylsulfonyl)piperidin-4-yl)amino)pyrimidin-4-yl)thiazol-5-yl)-2-methylpropan-2-ol], the 50% inhibitory concentration (IC50) was 100 to 500 nM in assay [1] and not above 100 nM in assay [2].
For the molecule `Cn1cc(S(=O)(=O)N2CC[C@@H](Nc3ncc(C(F)(F)F)c(-c4cc(C#N)c(C(C)(C)O)s4)n3)[C@H](F)C2)cn1` [Example 119, 5-(2-(((3R,4R)-3-fluoro-1-((1-methyl-1H-pyrazol-4-yl)sulfonyl)piperidin-4-yl)amino)-5-(trifluoromethyl)pyrimidin-4-yl)-2-(2-hydroxypropan-2-yl)thiophene-3-carbonitrile], the 50% inhibitory concentration (IC50) in assay [1] and in assay [2] was not above 100 nM each time.
`C[C@@H]1CN(S(=O)(=O)c2cnn(C)c2)CC[C@@H]1Nc1ncc(C(F)(F)F)c(-c2ncc(C(O)C(F)(F)F)s2)n1` (stereo partly drawn) [Example 141, 2,2,2-trifluoro-1-(2-(2-(((3R,4S)-3-methyl-1-((1-methyl-1H-pyrazol-4-yl)sulfonyl)piperidin-4-yl)amino)-5-(trifluoromethyl)pyrimidin-4-yl)thiazol-5-yl)ethan-1-ol]: the half-inhibitory concentration (IC50) in assay [1] is 100 to 500 nM; in assay [2], not above 100 nM.
For `C[C@@H]1CN(S(=O)(=O)c2cn(C)cn2)CC[C@@H]1Nc1ncc(C(F)(F)F)c(-c2ncc(C(O)C(F)F)s2)n1` (stereo partly drawn) [Example 139, 2,2-difluoro-1-(2-(2-(((3R,4S)-3-methyl-1-((1-methyl-1H-imidazol-4-yl)sulfonyl)piperidin-4-yl)amino)-5-(trifluoromethyl)pyrimidin-4-yl)thiazol-5-yl)ethan-1-ol] the same measures were not above 100 nM and not above 100 nM.
With `CC(O)(c1cnc(-c2nc(NC3CCN(S(C)(=O)=O)CC3)ncc2C(F)(F)F)s1)C(F)F` (centres unmarked) [Example 102, 1,1-difluoro-2-(2-(2-((1-(methylsulfonyl)piperidin-4-yl)amino)-5-(trifluoromethyl)pyrimidin-4-yl)thiazol-5-yl)propan-2-ol], the IC50 in assay [1] and in assay [2] was not above 100 nM in each case.
With `CC(C)(O)Cc1cnc(-c2nc(N[C@H]3CCN(S(C)(=O)=O)C[C@H]3F)ncc2C#N)s1` [Example 153, 2-(((3R,4S)-3-fluoro-1-(methylsulfonyl)piperidin-4-yl)amino)-4-(5-(2-hydroxy-2-methylpropyl)thiazol-2-yl)pyrimidine-5-carbonitrile], the IC50 in assay [1] was more than 500 nM; in assay [2], not above 100 nM.
Regarding `C[C@@H]1CN(S(=O)(=O)c2cnn(C)c2)CC[C@@H]1Nc1ncc(C(F)(F)F)c(-c2ncc(C(C)(O)C(F)(F)F)s2)n1` (stereo partly drawn) [Example 105, 1,1,1-trifluoro-2-(2-(2-(((3R,4S)-3-methyl-1-((1-methyl-1H-pyrazol-4-yl)sulfonyl)piperidin-4-yl)amino)-5-(trifluoromethyl)pyrimidin-4-yl)thiazol-5-yl)propan-2-ol], the 50% inhibitory concentration (IC50) in assay [1] and in assay [2] was not above 100 nM each time.
Regarding `Cn1cc(S(=O)(=O)N2CCC(Nc3ncc(C(F)(F)F)c(-c4cc(C#N)c(CC(C)(C)O)s4)n3)CC2)cn1` [Example 125, 2-(2-hydroxy-2-methylpropyl)-5-(2-((1-((1-methyl-1H-pyrazol-4-yl)sulfonyl)piperidin-4-yl)amino)-5-(trifluoromethyl)pyrimidin-4-yl)thiophene-3-carbonitrile], the results for the IC50 in assay [1] and in assay [2] were 100 to 500 nM and not above 100 nM, respectively.
Take `C[C@@H]1CN(S(=O)(=O)c2c[nH]cn2)CC[C@@H]1Nc1ncc(C(F)(F)F)c(-c2cc(C#N)c(C(C)(C)O)s2)n1` [Example 120, 5-(2-(((3R,4S)-1-((1H-imidazol-4-yl)sulfonyl)-3-methylpiperidin-4-yl)amino)-5-(trifluoromethyl)pyrimidin-4-yl)-2-(2-hydroxypropan-2-yl)thiophene-3-carbonitrile]: the 50% inhibitory concentration (IC50) in assay [1] and in assay [2] was not above 100 nM throughout.
